Where two headings read alike, the source gives them in different places. Starred links: 1 amine or outer side, 2 acyl side, 3 side chain; linkers in the order of their positions; H or OH if unused. Positions of bridges follow the written chain, without caps; N, C: chain ends. Non-standard residues stand in square brackets, D forms with d. Residues, ends and D or L forms follow the SMILES beside them. *: point of attachment. X16 = O=C([C@H](Cc1c[nH]c2c(-c3cccc(Cl)c3)cccc12)N[*:1])[*:2]; X6 = CS(=O)(=O)c1ccc(-c2ccc(C[C@H](N[*:1])C(=O)[*:2])cc2)cc1; X8 = COc1ccc(-n2cc(C[C@H](N[*:1])C(=O)[*:2])c3ccccc32)cc1; X3 = O=C(O)COc1ccccc1-c1ccc(C[C@H](N[*:1])C(=O)[*:2])cc1; Phe(3-OCH2COOH) = N[C@@H](Cc1cccc(OCC(=O)O)c1)C(=O)O; Trp(1-Ph) = N[C@@H](Cc1cn(-c2ccccc2)c2ccccc12)C(=O)O; Piperidine(4-CH2CH2CONH2) = NC(=O)CCC1CCN(*)CC1; Trp(6-OH) = N[C@@H](Cc1c[nH]c2cc(O)ccc12)C(=O)O; Phe(4-COOH) = N[C@@H](Cc1ccc(C(=O)O)cc1)C(=O)O; Gly(decyl) = CCCCCCCCCC[C@H](N)C(=O)O; Gly(N(CH2)3COOH) = O=C(O)CCCNCC(=O)O; Gly(octyl) = CCCCCCCC[C@H](N)C(=O)O; X1 = CCCCCCC[C@H](N[*:1])C(=O)[*:2]; Gly(N-(CH2)3OMe) = COCCCNCC(=O)O; NMeF = CN[C@@H](Cc1ccccc1)C(=O)O; NMeE = CN[C@@H](CCC(=O)O)C(=O)O; NMeA = CN[C@@H](C)C(=O)O; X9 = NC(=O)CC1CCN(*)CC1; Sar = CNCC(=O)O
How the values were obtained:
GDF-11 = biological target: T1, GDF-11 (Homo sapiens, UniProt O95390); assay: HepG2 reporter gene assay, Evaluation Procedure (2): 2-concentrations assay, GDF-11 inhibition; format: cell-based
T1 construct: purchased R&D systems 1958-GD-G8/CF
T1 sequence (O95390 299-407): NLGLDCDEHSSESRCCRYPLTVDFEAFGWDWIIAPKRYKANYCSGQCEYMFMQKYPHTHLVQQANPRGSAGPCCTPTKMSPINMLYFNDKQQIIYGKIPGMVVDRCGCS
How it was run: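 HepG2 cells carrying the transfected pGL3(CAGA)12-luc reporter, a pGL3 vector with luciferase placed downstream of 12 CAGA repeats, were stimulated with GDF-11 at a final 10 ng/mL together with test peptide. Blank wells received no GDF-11 and no peptide. Plates were incubated 20 to 24 hours at 37°C with 5% CO2. Luminescence from One-Glo substrate was read to calculate percent inhibition.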

Myostatin = biological target: T2, Myostatin (Homo sapiens, UniProt O14793); assay: HepG2 reporter gene assay, Evaluation Procedure (2): 2-concentrations assay, myostatin inhibition; format: cell-based
T2 construct: active myostatin (also called mature myostatin) is a homodimer consisting of two C-terminal growth factor domains; purchased R&D systems 788-G8/CF
T2 sequence (O14793 267-375): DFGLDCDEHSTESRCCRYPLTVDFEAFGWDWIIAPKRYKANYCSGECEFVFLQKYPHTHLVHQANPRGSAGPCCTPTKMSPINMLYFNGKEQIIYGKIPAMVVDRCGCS
How it was run: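 Myostatin inhibition was measured in a luciferase reporter assay using HepG2 cells transfected with a pGL3 vector containing 12 CAGA repeats upstream of luciferase. After 20 to 24 hours with 10 ng/mL myostatin, cells received One-Glo:PBS (1:1) at 100 µL/well, were shaken for 5 min, and 20 µL/well was moved to 384-well plates and read on an Envision 2104.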

[1] = HepG2, read-out: inhibition rate (GDF-11 inhibition assay), Table 7-3/7-4, GDF-11 10 ng/mL, peptide at the higher of the 2 concentrations
[2] = HepG2, read-out: inhibition rate (GDF-11 inhibition assay), Table 7-3/7-4, GDF-11 10 ng/mL, peptide at the lower of the 2 concentrations
[3] = HepG2, read-out: inhibition rate (myostatin inhibition assay)
[4] = HepG2, first GDF-11 column of Table 7-3/7-4, GDF-11 10 ng/mL, peptide at the lower of the 2 concentrations, read-out: inhibition rate (GDF-11 inhibition assay)
[5] = HepG2, second GDF-11 column of Table 7-3/7-4, GDF-11 10 ng/mL, peptide at the higher of the 2 concentrations, read-out: inhibition rate (GDF-11 inhibition assay)
[6] = Table 7-3/7-4, myostatin 10 ng/mL, peptide at the higher of the 2 concentrations, HepG2, read-out: inhibition rate (myostatin inhibition assay)
[7] = Table 7-3/7-4, myostatin 10 ng/mL, peptide at the lower of the 2 concentrations, HepG2, read-out: inhibition rate (myostatin inhibition assay)

## CCCCCCCCCC[C@@H]1NC(=O)[C@H](Cc2ccccc2)N(C)C(=O)[C@H](CCCNC(=N)N)NC(=O)[C@H](Cc2ccc(C(=O)O)cc2)NC(=O)[C@H](Cc2cccc(OCC(=O)O)c2)NC(=O)[C@H]2CCCN2C(=O)[C@H]([C@@H](C)CC)NC(=O)[C@H](Cc2ccccc2)N(C)C(=O)[C@H](Cc2ccc(O)cc2)NC(=O)[C@H](Cc2ccc(-c3ccc(S(C)(=O)=O)cc3)cc2)NC(=O)[C@H](C)NC(=O)[C@H](C)NC(=O)CSC[C@H](C(=O)N2CCC(CCC(N)=O)CC2)NC(=O)[C@H](Cc2ccccc2)N(C)C(=O)[C@H](CCC(=O)O)N(C)C1=O [Myostatin_99_v345] ({CH2CO}-AA[X6]Y[NMeF]I[dP][Phe(3-OCH2COOH)][Phe(4-COOH)]R[NMeF][Gly(decyl)][NMeE][NMeF][dC]-{Piperidine(4-CH2CH2CONH2)}; thioether N-15)
GDF-11; [1]
  inhibition: 70%
GDF-11; [2]
  inhibition: 7%
Myostatin; [3]
  inhibition at 0.03 µM: 100%
  inhibition at 0.1 µM: 100%

## CCCCCCCCCC[C@@H]1NC(=O)[C@H](Cc2ccccc2)N(C)C(=O)[C@H](CCCNC(=N)N)NC(=O)[C@H](Cc2ccc(C(=O)O)cc2)NC(=O)[C@H](Cc2cccc(OCC(=O)O)c2)NC(=O)[C@H]2CCCN2C(=O)[C@H]([C@@H](C)CC)NC(=O)[C@H](Cc2ccccc2)N(C)C(=O)[C@H](Cc2ccc(O)cc2)NC(=O)[C@H](Cc2c[nH]c3ccccc23)NC(=O)[C@H](C)NC(=O)[C@H](C)NC(=O)CSC[C@H](C(=O)N2CCC(CC(N)=O)CC2)NC(=O)[C@H](Cc2ccccc2)N(C)C(=O)[C@H](CCC(=O)O)N(C)C1=O [Myostatin_99_v347] ({CH2CO}-AAWY[NMeF]I[dP][Phe(3-OCH2COOH)][Phe(4-COOH)]R[NMeF][Gly(decyl)][NMeE][NMeF][dC]-X9; thioether N-15)
GDF-11; [4]
  inhibition: 0%
GDF-11; [5]
  inhibition: 8%
Myostatin; [6]
  inhibition at 0.1 µM: 100%
Myostatin; [7]
  inhibition at 0.03 µM: 100%

## CCCCCCC[C@@H]1NC(=O)[C@H](Cc2ccccc2)N(C)C(=O)[C@H](CCCNC(=N)N)NC(=O)[C@H](Cc2ccc(C(=O)O)cc2)NC(=O)[C@H](Cc2cccc(OCC(=O)O)c2)NC(=O)[C@H](C)N(C)C(=O)[C@H]([C@@H](C)CC)NC(=O)[C@H](Cc2ccccc2)N(C)C(=O)[C@H](Cc2ccc(O)cc2)NC(=O)[C@H](Cc2ccc(-c3ccc(S(C)(=O)=O)cc3)cc2)NC(=O)[C@H](C)NC(=O)CN(CCCC(=O)O)C(=O)CSC[C@H](C(=O)O)NC(=O)[C@H](Cc2ccccc2)N(C)C(=O)[C@H](C)N(C)C1=O [Myostatin_99_v370] ({CH2CO}-[Gly(N(CH2)3COOH)]A[X6]Y[NMeF]I[NMeA][Phe(3-OCH2COOH)][Phe(4-COOH)]R[NMeF][X1][NMeA][NMeF][dC]-OH; thioether N-15)
GDF-11; [1]
  inhibition: 0%
GDF-11; [2]
  inhibition: 0%
Myostatin; [3]
  inhibition at 0.03 µM: 100%
  inhibition at 0.1 µM: 100%

## CCCCCCC[C@@H]1NC(=O)[C@H](Cc2ccccc2)N(C)C(=O)[C@H](CCCNC(=N)N)NC(=O)[C@H](Cc2ccc(C(=O)O)cc2)NC(=O)[C@H](Cc2ccc(-c3ccccc3OCC(=O)O)cc2)NC(=O)[C@H](C)N(C)C(=O)[C@H]([C@@H](C)CC)NC(=O)[C@H](Cc2ccccc2)N(C)C(=O)[C@H](Cc2ccc(O)cc2)NC(=O)[C@H](Cc2c[nH]c3ccccc23)NC(=O)[C@H](C)NC(=O)CN(CCCC(=O)O)C(=O)CSC[C@H](C(=O)O)NC(=O)[C@H](Cc2ccccc2)N(C)C(=O)[C@H](C)N(C)C1=O [Myostatin_99_v371] ({CH2CO}-[Gly(N(CH2)3COOH)]AWY[NMeF]I[NMeA][X3][Phe(4-COOH)]R[NMeF][X1][NMeA][NMeF][dC]-OH; thioether N-15)
GDF-11; [1]
  inhibition: 0%
GDF-11; [2]
  inhibition: 0%
Myostatin; [3]
  inhibition at 0.03 µM: 100%
  inhibition at 0.1 µM: 100%

## CCCCCCC[C@@H]1NC(=O)[C@H](Cc2ccccc2)N(C)C(=O)[C@H](CCCNC(=N)N)NC(=O)[C@H](Cc2ccc(C(=O)O)cc2)NC(=O)[C@H](Cc2ccc(-c3ccccc3OCC(=O)O)cc2)NC(=O)[C@H](C)N(C)C(=O)[C@H]([C@@H](C)CC)NC(=O)[C@H](Cc2ccccc2)N(C)C(=O)[C@H](Cc2ccc(O)cc2)NC(=O)[C@H](Cc2c[nH]c3cc(O)ccc23)NC(=O)[C@H](C)NC(=O)CN(CCCC(=O)O)C(=O)CSC[C@H](C(=O)O)NC(=O)[C@H](Cc2ccccc2)N(C)C(=O)[C@H](C)N(C)C1=O [Myostatin_99_v373] ({CH2CO}-[Gly(N(CH2)3COOH)]A[Trp(6-OH)]Y[NMeF]I[NMeA][X3][Phe(4-COOH)]R[NMeF][X1][NMeA][NMeF][dC]-OH; thioether N-15)
GDF-11; [1]
  inhibition: 47%
GDF-11; [2]
  inhibition: 0%
Myostatin; [3]
  inhibition at 0.03 µM: 100%
  inhibition at 0.1 µM: 100%

## CCCCCCC[C@@H]1NC(=O)[C@H](Cc2ccccc2)N(C)C(=O)[C@H](CCCNC(=N)N)NC(=O)[C@H](Cc2ccc(C(=O)O)cc2)NC(=O)[C@H](Cc2cccc(OCC(=O)O)c2)NC(=O)[C@H](C)N(C)C(=O)[C@H]([C@@H](C)CC)NC(=O)[C@H](Cc2ccccc2)N(C)C(=O)[C@H](Cc2ccc(O)cc2)NC(=O)[C@H](Cc2c[nH]c3c(-c4cccc(Cl)c4)cccc23)NC(=O)[C@H](C)NC(=O)CN(CCCC(=O)O)C(=O)CSC[C@H](C(=O)O)NC(=O)[C@H](Cc2ccccc2)N(C)C(=O)[C@H](C)N(C)C1=O [Myostatin_99_v378] ({CH2CO}-[Gly(N(CH2)3COOH)]A[X16]Y[NMeF]I[NMeA][Phe(3-OCH2COOH)][Phe(4-COOH)]R[NMeF][X1][NMeA][NMeF][dC]-OH; thioether N-15)
GDF-11; [4]
  inhibition: 0%
GDF-11; [5]
  inhibition: 0%
Myostatin; [6]
  inhibition at 0.1 µM: 100%
Myostatin; [7]
  inhibition at 0.03 µM: 99%

## CCCCCCC[C@@H]1NC(=O)[C@H](Cc2ccccc2)N(C)C(=O)[C@H](CCCNC(=N)N)NC(=O)[C@H](Cc2ccc(C(=O)O)cc2)NC(=O)[C@H](Cc2cccc(OCC(=O)O)c2)NC(=O)[C@H](C)N(C)C(=O)[C@H]([C@@H](C)CC)NC(=O)[C@H](Cc2ccccc2)N(C)C(=O)[C@H](Cc2ccc(O)cc2)NC(=O)[C@H](Cc2cn(-c3ccc(OC)cc3)c3ccccc23)NC(=O)[C@H](C)NC(=O)CN(CCCC(=O)O)C(=O)CSC[C@H](C(=O)O)NC(=O)[C@H](Cc2ccccc2)N(C)C(=O)[C@H](C)N(C)C1=O [Myostatin_99_v379] ({CH2CO}-[Gly(N(CH2)3COOH)]A[X8]Y[NMeF]I[NMeA][Phe(3-OCH2COOH)][Phe(4-COOH)]R[NMeF][X1][NMeA][NMeF][dC]-OH; thioether N-15)
GDF-11; [4]
  inhibition: 0%
GDF-11; [5]
  inhibition: 0%
Myostatin; [6]
  inhibition at 0.1 µM: 100%
Myostatin; [7]
  inhibition at 0.03 µM: 100%

## CCCCCCC[C@@H]1NC(=O)[C@H](Cc2ccccc2)N(C)C(=O)[C@H](CCCNC(=N)N)NC(=O)[C@H](Cc2ccc(C(=O)O)cc2)NC(=O)[C@H](Cc2cccc(OCC(=O)O)c2)NC(=O)[C@H](C)N(C)C(=O)[C@H]([C@@H](C)CC)NC(=O)[C@H](Cc2ccccc2)N(C)C(=O)[C@H](Cc2ccc(O)cc2)NC(=O)[C@H](Cc2cn(-c3ccccc3)c3ccccc23)NC(=O)[C@H](C)NC(=O)CN(CCCC(=O)O)C(=O)CSC[C@H](C(=O)O)NC(=O)[C@H](Cc2ccccc2)N(C)C(=O)[C@H](C)N(C)C1=O [Myostatin_99_v380] ({CH2CO}-[Gly(N(CH2)3COOH)]A[Trp(1-Ph)]Y[NMeF]I[NMeA][Phe(3-OCH2COOH)][Phe(4-COOH)]R[NMeF][X1][NMeA][NMeF][dC]-OH; thioether N-15)
GDF-11; [4]
  inhibition: 0%
GDF-11; [5]
  inhibition: 0%
Myostatin; [6]
  inhibition at 0.1 µM: 100%
Myostatin; [7]
  inhibition at 0.03 µM: 100%

## CCCCCCCC[C@@H]1NC(=O)[C@H](Cc2ccccc2)N(C)C(=O)[C@H](CCCNC(=N)N)NC(=O)[C@H](Cc2ccc(C(=O)O)cc2)NC(=O)[C@H](Cc2cccc(OCC(=O)O)c2)NC(=O)CN(C)C(=O)[C@H]([C@@H](C)CC)NC(=O)[C@H](Cc2ccccc2)N(C)C(=O)[C@H](Cc2ccc(O)cc2)NC(=O)[C@H](Cc2c[nH]c3cc(O)ccc23)NC(=O)[C@H](C)NC(=O)CN(CCCOC)C(=O)CSC[C@H](C(N)=O)NC(=O)[C@H](Cc2ccccc2)N(C)C(=O)[C@H](C)N(C)C1=O [Myostatin_99_v414] ({CH2CO}-[Gly(N-(CH2)3OMe)]A[Trp(6-OH)]Y[NMeF]I[Sar][Phe(3-OCH2COOH)][Phe(4-COOH)]R[NMeF][Gly(octyl)][NMeA][NMeF][dC]-NH2; thioether N-15)
GDF-11; [4]
  inhibition: 0%
GDF-11; [5]
  inhibition: 44%
Myostatin; [6]
  inhibition at 0.1 µM: 100%
Myostatin; [7]
  inhibition at 0.03 µM: 100%
